Measurements from patent US11098040B2, “Compounds and methods of use” (Ferro Therapeutics, Inc., priority 2018, dated 2021).
pIC50: −log10 of the molar value. Where two headings read alike, the source gives them in different places.

Assays:
KHOS/NP = assay: Cell proliferation assay, KHOS/NP (Table 25); assay type: cell-based; conditions: Homo sapiens, Cell Line KHOS/NP
Description: (§1) Cell viability assay was performed to assess the potency of the compounds in human cancer cell lines 786-O (renal cell carcinoma) and SJSA-1 (osteosarcoma). Additional cell lines, such as those described above in Example 4 as well as various others, e.g., pancreatic cancer cell lines (Panc 02.13, BxPC-3, Panc 12, Panc 02.03, Panc 6.03, PSN-1, HPAC, and Capan-1) and prostate cancer cell lines (PC-3, DU145, 22Rv1, NCI-H660, BPH1, LNCaP, BM-1604, and MDA PCa 2b), were tested for select compounds as shown in Table 25.
(§2) The cell proliferation assays for the compounds shown Table 25 was performed according to the protocols described herein, including Examples 4 and 6.

SJSA-1 [1] = assay: Cell proliferation (Alamar Blue) assay, SJSA-1 osteosarcoma, with/without ferrostatin; assay type: cell-based, human; conditions: Homo sapiens, SJSA-1, Cell Line SJSA-1; read-out: IC50
How it was run: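 Cells seeded at 5000/well, 16-24 h, then exposed 24 h at 37° C to compound, 10-0.0005 μM in 3-fold dilutions, 1% DMSO final. Alamar Blue fluorescence (ex 540/em 590 nm) read after 1.5 h; IC50 from variable-slope sigmoidal fit.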

Panc 6.03 = assay: Cell proliferation assay, pancreatic cancer cell line Panc 6.03; assay type: cell-based
Description: as §1, §2

BxPC-3 = assay: Cell proliferation assay, pancreatic cancer cell line BxPC-3; assay type: cell-based; conditions: Homo sapiens
Description: as §1, §2

A549 = assay: Cell viability assay, A549 cells; assay type: cell-based; conditions: Homo sapiens, A549, Cell Line A549; read-out: IC50
How it was run: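 Growth of A549 cells was assessed with a cell viability assay. Cells were plated at 1,000-10,000 cells/well in 96-well plates and incubated overnight at 37° C. Nine-point 3-fold DMSO dilutions, starting from 30 μM and run in duplicate, were diluted into media (final DMSO 0.25% or less). After 96 hours, CellTiter Glo luminescence was read, inhibition was calculated against DMSO controls, and IC50 was fitted in XL-fit.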

MiaPaCa-2 = assay: Cell viability assay (CellTiter Glo), pancreatic carcinoma MiaPaCa-2; assay type: cell-based; conditions: Homo sapiens; Cell Line Mia PaCa-2; read-out: IC50
How it was run: (§3)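 MiaPaCa-2 and AsPC-1 cells were seeded overnight at 37 °C and exposed for 96 h to 9-point, 3-fold dilutions from up to 30 μM (final DMSO ≤0.25%). CellTiter Glo luminescence was read, and inhibition was calculated relative to DMSO-only cells. IC50, relative IC50 or % top inhibition was derived.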

PSN-1 = assay: Cell proliferation assay, pancreatic cancer cell line PSN-1; assay type: cell-based; conditions: Homo sapiens, PSN1
Description: as §1, §2

U-2 OS = assay: Cell proliferation assay, U-2 OS (Table 25); assay type: cell-based; conditions: Homo sapiens, U2OS; Cell Line U-2 OS
Description: as §1, §2

HPAC = assay: Cell proliferation assay, pancreatic cancer cell line HPAC; assay type: cell-based; conditions: Homo sapiens
Description: as §1, §2

Panc 02.13 = assay: Cell proliferation assay, pancreatic cancer cell line Panc 02.13; assay type: cell-based
Description: as §1, §2

AsPC-1 = assay: Cell viability assay (CellTiter Glo), pancreatic adenocarcinoma AsPC-1; assay type: cell-based; conditions: Homo sapiens, ASPC1; Cell Line AsPC-1; read-out: IC50
How it was run: as §3

KSK-ES-1 = assay: Cell proliferation assay, KSK-ES-1 (Table 25); assay type: cell-based; conditions: Cell Line KSK-ES-1
Description: as §1, §2

HT-1080 luc2 = assay: Cell viability assay (CellTiter Glo), fibrosarcoma HT-1080 luc2; assay type: cell-based; conditions: Homo sapiens, Cell Line HT1080, read-out: IC50
How it was run: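 HT-1080 luc2 fibrosarcoma cells seeded overnight, then exposed 96 h at 37° C to 9-point 3-fold dilutions (top up to 30 μM; DMSO ≤0.25% final). CellTiter Glo luminescence; % inhibition relative to DMSO-only wells, fitted to IC50, relative IC50 or % top inhibition.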

Panc 02.03 = assay: Cell proliferation assay, pancreatic cancer cell line Panc 02.03; assay type: cell-based; conditions: Homo sapiens
Description: as §1, §2

Panc 12 = assay: Cell proliferation assay, pancreatic cancer cell line Panc 12; assay type: cell-based
Description: as §1, §2

H2228 = assay: Cell viability assay (CellTiter Glo), lung cancer cell line H2228; assay type: cell-based; conditions: Homo sapiens, NCI-H2228; Cell Line H2228; read-out: IC50
How it was run: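 Adherent lines got 500-5,000 cells/well and suspension lines 5,000-10,000. Treatment lasted 96 h across a 9-concentration 3-fold series, top concentration up to 30 μM. % inhibition relative to DMSO-only luminescence gave IC50 values.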

Capan-1 = assay: Cell proliferation assay, pancreatic cancer cell line Capan-1; assay type: cell-based; conditions: Homo sapiens
Description: as §1, §2

MG-63 = assay: Cell proliferation assay, MG-63 (Table 25); assay type: cell-based; conditions: Homo sapiens
Description: as §1, §2

143B = assay: Cell viability assay (CellTiter Glo), osteosarcoma 143B; assay type: cell-based; conditions: Homo sapiens, Cell Line 143B, read-out: IC50
How it was run: (§4)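 Cells seeded at 500-5,000/well overnight, then 96 h exposure to 9-point 3-fold dilutions from up to 30 μM (4.6 nM-30 μM), final DMSO ≤0.25%. Viability by CellTiter Glo luminescence; inhibition relative to DMSO-only cells, yielding IC50, relative IC50 or % top inhibition.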

SJSA-1 [2] = assay: Cell viability assay (CellTiter Glo), osteosarcoma SJSA-1; assay type: cell-based; conditions: Homo sapiens, 96 hours
How it was run: as §4

KP4 = assay: Cell viability assay (CellTiter Glo), pancreatic ductal adenocarcinoma KP4; assay type: cell-based, human; conditions: Homo sapiens
How it was run: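 Luminescent ATP readout (CellTiter Glo) after 96 h compound exposure, normalized to DMSO-treated cells as maximum. Compounds ran in duplicate, nine 3-fold steps from 30 μM down to 4.6 nM, final DMSO ≤0.25%; KP4 plated overnight at 1,000–10,000 cells/well. Outputs: IC50, relative IC50 or % top inhibition.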

[3] = Whole blood stability, human; assay type: in vitro ADME
Source text: (§5) The results of the assay on stability in blood and IC50 values for pancreatic cancer cell line KP4 are given below in Table 24.

[4] = Whole blood stability, mouse; assay type: in vitro ADME
Source text: as §5

A673 = assay: Cell proliferation assay, A673 (Table 25); assay type: cell-based; conditions: Homo sapiens, A673, Cell Line A673
Description: as §1, §2

DU145 = assay: Cell proliferation assay, prostate cancer cell line DU145; assay type: cell-based; conditions: Homo sapiens, DU-145
Description: as §1, §2

BM-1604 = assay: Cell proliferation assay, prostate cancer cell line BM-1604; assay type: cell-based
Description: as §1, §2

MDA PCa 2b = assay: Cell proliferation assay, prostate cancer cell line MDA PCa 2b; assay type: cell-based
Description: as §1, §2

22Rv1 = assay: Cell proliferation assay, prostate cancer cell line 22Rv1; assay type: cell-based; conditions: Homo sapiens
Description: as §1, §2

NCI-H660 = assay: Cell proliferation assay, prostate cancer cell line NCI-H660; assay type: cell-based
Description: as §1, §2

LNCaP = assay: Cell proliferation assay, prostate cancer cell line LNCaP; assay type: cell-based; conditions: Homo sapiens
Description: as §1, §2

PC-3 = assay: Cell proliferation assay, prostate cancer cell line PC-3; assay type: cell-based; conditions: Homo sapiens
Description: as §1, §2

BPH1 = assay: Cell proliferation assay, prostate cancer cell line BPH1; assay type: cell-based; conditions: Homo sapiens, BPH-1
Description: as §1, §2

SMILES | pIC50 (Panc 6.03) | pIC50 (BxPC-3) | pIC50 (A549) | pIC50 (MiaPaCa-2) | pIC50 (PSN-1) | pIC50 (U-2 OS) | pIC50 (HPAC) | pIC50 (Panc 02.13) | pIC50 (AsPC-1) | pIC50 (HT-1080 luc2) | pIC50 (Panc 02.03) | pIC50 (H2228) | pIC50 (Capan-1) | pIC50 (MG-63; MG-63, Cell Line MG-63) | pIC50 (143B) | further results
COc1ccc2[nH]c3c(c2c1)C[C@H](C)N(C(=O)CCl)[C@H]3c1ccc(N2CCOCC2)cc1 [Example 121] | 6.65 | 5.99 | 5.11 | 6.69 | 6.76 | 5.31 | 6.69 | 6.01 | 7.16 | 7.20 | 6.16 | 7.78 | < 6.00 | 6.27 | – | pIC50 (KHOS/NP): 7.20; pIC50 (SJSA-1 [1]): 6.97; pIC50 (KSK-ES-1): 6.67; pIC50 (Panc 12; Cell Line Panc 10): 7.23
CCC[C@H]1Cc2c([nH]c3ccccc23)[C@H](c2ccc(N3CCOCC3)cc2)N1C(=O)CCl [Example 118] | 7.81 | 7.26 | 5.27 | 7.78 | 7.75 | 5.30 | 7.69 | 6.99 | 8.13 | 8.42 | 7.31 | 8.86 | 6.89 | 7.41 | 8.32 | pIC50 (SJSA-1 [2]): 7.55; pIC50 (Panc 12; Cell Line Panc 9): 8.19; pIC50 (KP4; KP-4, Cell Line KP4, read-out: IC50): 9.04; pIC50 (MG-63; MG-63, Cell Line MG-67): < 5.52
CC[C@H]1Cc2c([nH]c3ccccc23)[C@H](c2ccc(N3CCOCC3)cc2)N1C(=O)CCl [Example 117] | 7.48 | 7.06 | – | 7.24 | 7.33 | 5.44 | 7.31 | 6.67 | 7.90 | 8.15 | 6.83 | 8.47 | 6.58 | – | 7.94 | pIC50 (Panc 12; Cell Line Panc 8): 7.83
COc1ccc2[nH]c3c(c2c1)C[C@H](C)N(C(=O)CCl)[C@H]3c1ccc(N2CCOCC2)cc1 [Compound 121] | – | – | – | – | – | – | – | – | – | – | – | – | – | – | – | Whole Blood Stability % Remaining at 37° C. Human ([3]; 0 min): 100.0%; Whole Blood Stability % Remaining at 37° C. Human ([3]; 30 min): 90.3%; Whole Blood Stability % Remaining at 37° C. Human ([3]; 60 min): 61.3%; Whole Blood Stability % Remaining at 37° C. Mouse ([4]; 0 min): 100.0%; Whole Blood Stability % Remaining at 37° C. Mouse ([4]; 30 min): 84.3%; Whole Blood Stability % Remaining at 37° C. Mouse ([4]; 60 min): 50.0%; pIC50 (A673): 7.05; IC50 (KP4; KP-4, 96 h, pancreatic cancer cell line KP4, 96 hours, CellTiter Glo, read-out: IC50 μM KP4): < 0.01 µM
CCCC[C@H]1Cc2c([nH]c3ccccc23)[C@H](c2ccc(N3CCOCC3)cc2)N1C(=O)CCl [Compound 240] | 7.77 | 7.15 | 5.24 | 7.45 | 7.70 | 5.37 | 7.54 | 6.92 | 8.12 | 8.32 | 7.19 | 8.77 | 6.77 | 7.40 | 8.28 | pIC50 (DU145): 8.21; pIC50 (BM-1604): < 5.70; pIC50 (MDA PCa 2b): < 5.70; pIC50 (22Rv1): 7.64; pIC50 (NCI-H660): 7.50; pIC50 (LNCaP): 6.24; pIC50 (PC-3): 8.41; pIC50 (BPH1): 6.69; pIC50 (Panc 12; Cell Line Panc 11): 8.07; pIC50 (MG-63; MG-63, Cell Line MG-68): < 5.52
